From patent publication US4880807A, “Nicotinoylpiperazines useful for treatment of convulsions” (Institut De Recherches Chimiques et Biologiques Appliquees …, priority 1987, dated 1989)
Where two headings read alike, the source gives them in different places.

Legend:
[1] = system: convulsions induced by pentetrazole; assay: animal or person; details: for ED50: Mus musculus, read-out: ED50 in respect of convulsions induced by PTZ, per os, male mice, 30 min after administration, pentetrazole 125 mg/kg i.p., dose protecting 50% of animals; for ED50 / ED50 in respect of convulsions induced by PTZ: 0.5 h
Excerpt: (§1) The anticonvulsant properties were investigated on male mice, thirty minutes after the oral administration of the substances to be studied, by the induction of convulsive seizures.

[2] = oral toxicity in mice (LD50, mortality over 14 days); details: mouse, in vivo, po
Method: (§2) The toxicity of the products to be studied was investigated by the oral administration, using an esophageal tube, of each of the said products to male mice with a body weight of 18 to 22 g, divided into groups each containing 10 to 20 animals. The mortality was recorded over a 14-day period.

[3] = system: convulsions induced by supra maximal electroshock (MCE); assay: animal or person; details: for ED50: Mus musculus, read-out: ED50 in respect of convulsions induced by MCE, per os, male mice, 30 min after administration, electrical stimulation of the cornea, dose protecting 50% of animals; for ED50 / ED50 in respect of convulsions induced by MCE: po, 0.5 h; for Therapeutic index MCE (LD50/ED50): LD50 per os/ED50 per os, MCE convulsions
Method: as §1
These seizures are caused either by the intraperitoneal injection of pentetrazole (125 mg/kg) or by electrical stimulation of the cornea (supra maximal electroshock, abbreviated to MCE).

male mice [4] = assay: oral toxicity in mice (LD50, mortality over 14 days); details: male mice
Method: as §2

male mice [5] = assay: in vivo; format: in vivo; details: for TD50 (50% neurotoxic dose): per os, male mice, Rota-rod 30 min after administration, dose causing 50% of animals to fall, 30 min
Excerpt: (§3) The animals (divided into groups each containing ten male mice per dose and per product) are installed on the rod and their fall is observed over the next two minutes.

in vivo = format: in vivo; details: mouse, po, per os, male mice, Rota-rod 30 min after administration, dose causing 50% of animals to fall, read-out: TD50 (50% neurotoxic dose)
Excerpt: as §3

[6] = LD50, oral (esophageal tube), male mice, groups of 10 to 20, 14 days, Table II
[7] = oral (esophageal tube), groups of 10 to 20, 14 days, Table II
[8] = LD50 per os/ED50 per os, PTZ convulsions
[9] = LD50, per os, male mice, repeated in Table IV
[10] = TD50 per os/ED50 per os, MCE convulsions
[11] = TD50 per os/ED50 per os, PTZ convulsions
[12] = per os, repeated in Table IV, 20160 min

SMILES | ED50 ([1]; po) | LD50 at 336 h [2, 6] | ED50 [3] | ED50 in respect of convulsions induced by PTZ ([1]; po) | ED50 in respect of convulsions induced by MCE [3] | Therapeutic index PTZ (LD50/ED50) [1, 8] | Therapeutic index MCE (LD50/ED50) [3] | other results
COc1cccc(N2CCN(C(=O)c3cccnc3)CC2)c1 [Ex. 15] | 183 mg/kg | > 1000 mg/kg | > 200 mg/kg |  |  |  |  | 
COc1ccc(N2CCN(C(=O)c3cccnc3)CC2)cc1 [Ex. 16] | 120 mg/kg | > 1000 mg/kg | > 200 mg/kg |  |  |  |  | 
COc1ccc(N2CCN(C(=O)c3cccnc3)CC2)cc1 [Ex. 17] |  |  |  | 200 mg/kg | > 200 mg/kg |  |  | LD50 (male mice [4]; [7]): > 1000 mg/kg
CCOc1cccc(N2CCN(C(=O)c3cccnc3)CC2)c1 [Ex. 18] | 72 mg/kg | 540 mg/kg | 118 mg/kg |  |  | 7.5 | 4.6 | LD50 at 336 h [2, 9]: 540 mg/kg; Protection index MCE (TD50/ED50) (male mice [5]; mouse, in vivo, po): 2.5; Protection index PTZ (TD50/ED50) (male mice [5]; mouse, in vivo, po): 4.0; TD50 at 0.5 h (in vivo; rota-rod): 291 mg/kg
CCOc1cccc(N2CCN(C(=O)c3cccnc3)CC2)c1 [Ex. 19] |  |  |  | 142 mg/kg | 150 mg/kg |  | 6.7 | Therapeutic index PTZ (LD50/ED50) ([1]; mouse, in vivo, po): 7.0; Protection index MCE (TD50/ED50) (male mice [5]; mouse, in vivo, po): 1.7; Protection index PTZ (TD50/ED50) (male mice [5]; mouse, in vivo, po): 1.8; TD50 (50% neurotoxic dose) (male mice [5]): 250 mg/kg
CC(=O)c1ccc(N2CCN(C(=O)c3cccnc3)CC2)cc1 [Ex. 20] | > 200 mg/kg | > 1000 mg/kg | > 200 mg/kg |  |  |  |  | 
Cc1cc(Cl)ccc1N1CCN(C(=O)c2cccnc2)CC1 [Ex. 22, 4-(4-chloro-2-methylphenyl)-1-nicotinoylpiperazine] |  | 540 mg/kg |  | 55 mg/kg | 87 mg/kg | 9.8 | 6.2 | LD50 at 336 h [2, 9]: 540 mg/kg; Protection index MCE (TD50/ED50) (male mice [5]; [10]): 3.4; Protection index PTZ (TD50/ED50) (male mice [5]; [11]): 5.4; TD50 (50% neurotoxic dose) (male mice [5]): 300 mg/kg
Cc1cc(Cl)ccc1N1CCN(C(=O)c2cccnc2)CC1 [Ex. 23, 4-(4-chloro-2-methylphenyl)-1-nicotinoylpiperazine] |  |  |  | 124 mg/kg | > 200 mg/kg | > 8.1 | < 5.0 | LD50 (male mice [4]; [7]): > 1000 mg/kg; LD50 (male mice [4]; [12]): > 1000 mg/kg; Protection index MCE (TD50/ED50) (male mice [5]; [10]): 4.5; Protection index PTZ (TD50/ED50) (male mice [5]; [11]): 7.4; TD50 (50% neurotoxic dose) (male mice [5]): 650 mg/kg
Cc1ccc(Cl)cc1N1CCN(C(=O)c2cccnc2)CC1 [Ex. 24, 4-(5-chloro-2-methylphenyl)-1-nicotinoylpiperazine] | 63 mg/kg | > 1000 mg/kg | 83 mg/kg |  |  | > 15.9 | > 12.0 | LD50 at 336 h [2, 9]: > 1000 mg/kg; Protection index MCE (TD50/ED50) (male mice [5]; [10]): 6.3; Protection index PTZ (TD50/ED50) (male mice [5]; [11]): 8.3; TD50 at 0.5 h (in vivo; rota-rod): 525 mg/kg
Cc1ccc(Cl)cc1N1CCN(C(=O)c2cccnc2)CC1 [Ex. 25, 4-(5-chloro-2-methylphenyl)-1-nicotinoylpiperazine] |  |  |  | 79 mg/kg | 87 mg/kg | > 12.7 | > 11.5 | LD50 (male mice [4]; [7]): > 1000 mg/kg; LD50 (male mice [4]; [12]): > 1000 mg/kg; Protection index MCE (TD50/ED50) (male mice [5]; [10]): 4.1; Protection index PTZ (TD50/ED50) (male mice [5]; [11]): 4.5; TD50 (50% neurotoxic dose) (male mice [5]): 355 mg/kg
Cc1cccc(Cl)c1N1CCN(C(=O)c2cccnc2)CC1 [Ex. 26] | > 200 mg/kg | > 1000 mg/kg | > 200 mg/kg |  |  |  |  | 
O=C(c1cccnc1)N1CCN(c2ccccc2)CC1 [Ex. 27] | 156 mg/kg | > 1000 mg/kg | > 200 mg/kg |  |  |  |  | 
O=C(c1cccnc1)N1CCN(c2ccccc2)CC1 [Ex. 28] |  |  |  | > 200 mg/kg | > 200 mg/kg |  |  | LD50 (male mice [4]; [7]): > 1000 mg/kg
Cc1cccc(C)c1N1CCN(C(=O)c2cccnc2)CC1 [Ex. 30] | 138 mg/kg | > 1000 mg/kg |  |  |  |  |  | 
CN1C(=O)OC(C)(C)C1=O [TRIM, trimethadione, reference compound] | 251 mg/kg |  | 500 mg/kg |  |  | 8.7 | 4.4 | LD50 at 336 h [2]: 2180 mg/kg; LD50 at 336 h [2, 9]: 2180 mg/kg; Protection index MCE (TD50/ED50) (male mice [5]; mouse, in vivo, po): 2.0; Protection index PTZ (TD50/ED50) (male mice [5]; mouse, in vivo, po): 4.0; TD50 at 0.5 h (in vivo; in vivo): 1000 mg/kg
